Experimental data as given in patent publication US20080058299A1, “Method of treating or preventing bone deterioration or osteoporosis” (priority 2005, published 2008).
Where “and” joins values, the source holds several entries; their conditions need not be identical. Identical values can stand only once. Like-named read-outs stand apart in the source and are kept apart here.

Assays:
[1] = Serum testosterone and estradiol concentrations in hypogonadal men treated with AndroGel for 24 months; type: in vivo
Source text: (§1) Ten men with severe and untreated hypogonadism due to known disease were entered into the study. […] All ten subjects had secondary hypogonadism. Eight subjects had pituitary adenomas, one had pinealoma, and one had Kallmann's syndrome. Hypogonadism developed in adulthood in nine. […] The estimated duration of hypogonadism was 2-30 years (median, 5 years). […] Of the two who had been treated, one had not been treated for four years and the other for 20 years before entering the study. The median age at entry was 51 years (range 31-78).
Estradiol was measured by ultrasensitive immunoradiometric assay (DSL, Webster, Tex.). Intra- and interassay coefficients of variation were <10%.

hypogonadal men [2] = test: Bone mineral density by DXA in hypogonadal men; type: in vivo
Method: (§2) Ten men with severe and untreated hypogonadism due to known disease were entered into the study.
(§3) All subjects were assessed by dual energy X-ray absorptiometry (DXA) and magnetic resonance microimaging (μMRI) at 0, 6, 12 and 24 months. The hypogonadal subjects were also assessed for markers of bone metabolism at 0, 3, and 6 months.
Bone mineral density (BMD) of the anterior-posterior lumbar spine (L1-L4) and of the right hip was determined by DXA using Hologic densitometers (Hologic, Inc., Bedford, Mass.), a QDR-4500A for the first year of the study and a Dephi A for the second. […] Scans from the same subject were evaluated by the “compare” feature of the DXA instrument. The coefficients of variation for long-term instrument stability, as assessed by daily measurements of a phantom, were <0.9%.
(§4) For all parameters, changes from 0 to 24 months were tested by multivariate analysis of variance, one factor repeated measures design. If the change from 0 to 24 months was significant, pair-wise comparisons of each treatment time (6, 12, and 24 months) against pretreatment were determined with Dunnett's test. Missing values were imputed by the method of last observation carried forward. A type I error rate of 0.05 was used for determining statistical significance. SAS statistical software, version 9.1 (SAS Institute, Inc., Cary, N.C.) was used for all analysis.

hypogonadal men [3] = test: Markers of bone metabolism in hypogonadal men; type: in vivo
Method: as §2, §3
After an overnight fast, blood and a timed 2-hour urine sample were collected. Serum and urine samples were frozen at −70° C. The markers and methods of assay were as follows: bone-specific alkaline phosphatase (BAP), immunoradiometric assay (Tandem-R Ostase, Beckman-Coulter, Inc., Fullerton, Calif.); osteoprotegerin, enzyme-linked immunosorbent assay (American Laboratory Products Company, Windham, N.H.); intact N-terminal propeptide of type I procollagen (PINP), radioimmunoassay, (Orion Diagnostica UniQ, IDS, Inc. Fountain Hills, Ariz.); cross-linked N-telopeptides of type I collagen (NTx), enzyme-linked immunosorbent assay (Osteomark, Ostex International, Inc. Seattle, Wash.). For each assay, all samples were measured in a single assay run.

hypogonadal men [4] = test: Magnetic resonance microimaging (μMRI) of trabecular architecture of the right distal tibia; type: in vivo
Source text: as §1, §3
Magnetic resonance microimaging (μMRI) of the right distal tibia was performed using a Signa 1.5 Tesla MR scanner (GE Medical Systems, Milwaukee, Wis.) and a custom-designed receive-only radiofrequency phased array surface coil. The coil was placed on the anterior right tibia, the edge 1 cm proximal to the midpoint of the medial malleolus, and the right foot was immobilized. Twenty-eight images were obtained to map trabecular architecture. Song H K, et al., Magn. Reson. Med., 41:947-53 (1999). […] The data were processed using a custom-designed program written in IDL (Interactive Data Language, Boulder, Colo.). Wehrli F W, et al., J. Bone Miner. […] The data were motion-corrected, filtered and Fourier transformed. To ensure that the same volume was analyzed at each time point for each subject, the images corresponding to the 0, 6, 12, and 24 month examinations of each subject were matched for volume of interest by identifying similar trabecular features. After the volume of interest was selected manually on each of the matched slices by tracing a line approximately 1 mm from the endocortical boundary on the anterior half of the distal metaphysis, bone volume fraction maps were computed. Subvoxel processing yielded a voxel size of 69×69×103 μm^3. Hwang S N, et al., Magn. Reson. Med., 47 (2002). A cylindrical core measuring 6.85 mm in diameter was obtained from the center of the volume of interest. (FIG. 3).
Digital topological analysis of the trabecular network was performed on the entire volume of interest. Gomberg BR, et al., IEEE Trans. […] The topological class of each image voxel was determined, yielding the density of surface voxels, curve voxels, and voxels part of mutual junctions. The topological analysis began with binarization of the three-dimensional images, followed by skeletonization, which converted the plate-like elements of the trabecular network to surfaces and the rodlike elements to curves. Each voxel was then classified as belonging to a surface, curve, or junction between these voxel types. […] One composite parameter was the surface-to-curve ration, the ratio of all surface voxels to all curve voxels. The higher the ratio, the more intact in the trabecular network, and vice versa. The second composite parameter was the topological erosion index, a ratio of parameters that are expected to increase upon trabecular deterioration (Curve edge and curve interior voxels, surface and profile edges, and curve-curve junction voxels) to those expected to decrease (surface interior voxels and surface-surface junctions). The lower the topological erosion index, the smaller the degree to which the trabecular network has deteriorated. Trabecular thickness was determined by an independent program based on the concept of fuzzy distance transform. Saha P K, et al., IEEE Trans.
as §4, with “A type I error rate of 0.05 was used for determining statistical significance. SAS statistical software, version 9.1 (SAS Institute, Inc., Cary, N.C.) was used for all analysis.” left out

[5] = cited from earlier work
postmenopausal women = conditions: 32 postmenopausal women, average 19 months, versus 19 placebo-treated women; cited from earlier work
[6] = distal tibia, 24 Months of treatment

**Q.** Which results are given for `C[C@]12CC[C@H]3[C@@H](CCC4=CC(=O)CC[C@@]43C)[C@@H]1CC[C@@H]2O` [Testosterone]?
**A.** concentration at 3 months ([1]; male, human, serum, topical, AndroGel 5-10 g/day, month 3): 6.56 ng/mL and 22.8 nM; serum testosterone concentration (in words) ([1]; throughout the 24 months of treatment): remained normal; Femoral Neck BMD, % Change 0-24 months (hypogonadal men [2]): 2.1 ± 5.1%; Femoral Neck BMD, Change 0-24 months (hypogonadal men [2]): 0.016 ± 0.038 g/cm^2; Intertrochanteric BMD, % Change 0-24 months (hypogonadal men [2]): 4.4 ± 3.7%; Intertrochanteric BMD, Change 0-24 months (hypogonadal men [2]): 0.049 ± 0.037 g/cm^2; Spine BMD, % Change 0-24 months (hypogonadal men [2]): 7.4 ± 5.1%; Spine BMD, Change 0-24 months (hypogonadal men [2]): 0.069 ± 0.053 g/cm^2; Total Hip BMD, % Change 0-24 months (hypogonadal men [2]): 3.8 ± 3.4%; Total Hip BMD, Change 0-24 months (hypogonadal men [2]): 0.034 ± 0.029 g/cm^2; Trochanter BMD, % Change 0-24 months (hypogonadal men [2]): 4.0 ± 4.7%; Trochanter BMD, Change 0-24 months (hypogonadal men [2]): 0.027 ± 0.030 g/cm^2; Ward's Triangle BMD, % Change 0-24 months (hypogonadal men [2]): 5.1 ± 10.1%; Ward's Triangle BMD, Change 0-24 months (hypogonadal men [2]): 0.028 ± 0.060 g/cm^2; Femoral Neck BMD (hypogonadal men [2]; 24 Months of treatment): 0.828 ± 0.145 g/cm^2; Intertrochanteric BMD (hypogonadal men [2]; 24 Months of treatment): 1.206 ± 0.205 g/cm^2; Spine BMD (hypogonadal men [2]; 24 Months of treatment): 1.000 ± 0.219 g/cm^2; Total Hip BMD (hypogonadal men [2]; 24 Months of treatment): 0.994 ± 0.162 g/cm^2; Ward's Triangle BMD (hypogonadal men [2]; 24 Months of treatment): 0.616 ± 0.172 g/cm^2; Spine BMD, % Change 0-24 months (hypogonadal men [2]; listed as testosterone): 7.4%; bone-specific alkaline phosphatase (BAP), in words (hypogonadal men [3]; 0 to 6 months): did not change; serum intact N-terminal propeptide of type I procollagen (PINP) (hypogonadal men [3]; 3 months of treatment): 71.3 ± 32.1 µg/L; Serum osteoprotegerin (hypogonadal men [3]; 6 months of treatment): 4.29 ± 0.82 pmol/L; Urine NTx, in words (hypogonadal men [3]; baseline to 6 months): did not change; Bone Volume Fraction, % Change 0-24 months (hypogonadal men [4]; distal tibia): 5.0 ± 4.2%; Bone Volume Fraction, Change 0-24 months (hypogonadal men [4]; distal tibia): 0.005 ± 0.004; Trabecular Thickness, % Change 0-24 months (hypogonadal men [4]; distal tibia): 1.5 ± 0.5%; Trabecular Thickness, Change 0-24 months (hypogonadal men [4]; distal tibia): 1.7 ± 0.6 μ; Bone Volume Fraction (hypogonadal men [4]; [6]): 0.103 ± 0.011; Trabecular Thickness (hypogonadal men [4]; [6]): 120.5 ± 3.8 μ; Bone Volume Fraction, % Change 0-24 months (hypogonadal men [4]; distal tibia, listed as testosterone): 5%; increase of trabecular thickness during treatment (hypogonadal men [4]; starting at 6 months): ~2%; bound to protein in the blood ([5]; circulating testosterone): 98%; share bound weakly to albumin ([5]; in men): 60%; share of binding to sex hormone binding globulin (SHBG) ([5]; in men): approximately 40%

**Q.** For `CC[C@H](C)[C@H](NC(=O)[C@H](CCC(=O)O)NC(=O)[C@H](CO)NC(=O)[C@@H](NC(=O)[C@@H](N)CO)C(C)C)C(=O)N[C@@H](CCC(N)=O)C(=O)N[C@@H](CC(C)C)C(=O)N[C@@H](CCSC)C(=O)N[C@@H](Cc1cnc[nH]1)C(=O)N[C@@H](CC(N)=O)C(=O)N[C@@H](CC(C)C)C(=O)NCC(=O)N[C@@H](CCCCN)C(=O)N[C@@H](Cc1cnc[nH]1)C(=O)N[C@@H](CC(C)C)C(=O)N[C@@H](CC(N)=O)C(=O)N[C@@H](CO)C(=O)N[C@@H](CCSC)C(=O)N[C@@H](CCC(=O)O)C(=O)N[C@@H](CCCN=C(N)N)C(=O)N[C@H](C(=O)N[C@@H](CCC(=O)O)C(=O)N[C@@H](Cc1c[nH]c2ccccc12)C(=O)N[C@@H](CC(C)C)C(=O)N[C@@H](CCCN=C(N)N)C(=O)N[C@@H](CCCCN)C(=O)N[C@@H](CCCCN)C(=O)N[C@@H](CC(C)C)C(=O)N[C@@H](CCC(N)=O)C(=O)N[C@@H](CC(=O)O)C(=O)N[C@H](C(=O)N[C@@H](Cc1cnc[nH]1)C(=O)N[C@@H](CC(N)=O)C(=O)N[C@@H](Cc1ccccc1)C(=O)O)C(C)C)C(C)C` [rhPTH], which “trabecular connectivity, in words” value (postmenopausal women) is on record?
**A.** significantly increased their trabecular connectivity
